In the supplement of paper PMC10307832:

Assays:
Assay in all cases: relative viability (nuclei count vs DMSO), 5 days (fraction); higher = more cells survive
[1] = compound: COc1cc(Nc2c(C#N)cnc3cc(OCCCN4CCN(C)CC4)c(OC)cc23)c(Cl)cc1Cl [Bosutinib] + C[C@]1(O)C[C@@H](c2nc(-c3ccc4ccc(-c5ccccc5)nc4c3)c3c(N)nccn32)C1 [Linsitinib] (partner 1 µM)
Outline: (§1)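 The day after seeding in 1536-well plates, lung cancer cell lines were treated by pin tool with a single drug, or with a fixed anchor-drug dose together with five library-drug doses (not always all listed) in √10 steps. After 5 days, a combined fix-and-stain solution (final 0.05% Triton X-100, 1% formaldehyde, 1 ug/ml Hoechst) was added. Nuclei counted on 4× images gave relative viability as treated counts over vehicle counts, reported as the median of duplicate plates.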

[2] = compound: COc1cc(Nc2c(C#N)cnc3cc(OCCCN4CCN(C)CC4)c(OC)cc23)c(Cl)cc1Cl [Bosutinib] + O=C(c1cc(Cc2n[nH]c(=O)c3ccccc23)ccc1F)N1CCN(C(=O)C2CC2)CC1 [Olaparib] (partner 8 µM)
Outline: as §1

[3] = compound: COc1cc(Nc2c(C#N)cnc3cc(OCCCN4CCN(C)CC4)c(OC)cc23)c(Cl)cc1Cl [Bosutinib] + O=C(CCCCCCC(=O)Nc1ccccc1)NO [Vorinostat] (partner 1 µM)
Outline: as §1

[4] = compound: COc1cc(Nc2c(C#N)cnc3cc(OCCCN4CCN(C)CC4)c(OC)cc23)c(Cl)cc1Cl [Bosutinib] + Cc1nc(Nc2ncc(C(=O)Nc3c(C)cccc3Cl)s2)cc(N2CCN(CCO)CC2)n1 [Dasatinib] (partner 0.075 µM)
Outline: as §1

[5] = compound: COc1cc(Nc2c(C#N)cnc3cc(OCCCN4CCN(C)CC4)c(OC)cc23)c(Cl)cc1Cl [Bosutinib] + Cc1cc(Nc2cc(N3CCN(C)CC3)nc(Sc3ccc(NC(=O)C4CC4)cc3)n2)n[nH]1 [Tozasertib] (partner 0.1 µM)
Outline: as §1

Row | Cell Line | relative viability ([1]; first compound 0.01 µM) | relative viability ([1]; first compound 0.03162 µM) | relative viability ([1]; first compound 0.1 µM) | relative viability ([1]; first compound 1 µM) | relative viability ([2]; first compound 0.01 µM) | relative viability ([2]; first compound 0.03162 µM) | relative viability ([2]; first compound 0.1 µM) | relative viability ([2]; first compound 1 µM) | relative viability ([3]; first compound 0.01 µM) | relative viability ([3]; first compound 0.03162 µM) | relative viability ([3]; first compound 0.1 µM) | relative viability ([3]; first compound 1 µM) | relative viability ([4]; first compound 0.01 µM) | relative viability ([4]; first compound 0.03162 µM) | relative viability ([4]; first compound 0.1 µM) | relative viability ([4]; first compound 1 µM) | relative viability ([5]; first compound 0.01 µM) | relative viability ([5]; first compound 0.03162 µM) | relative viability ([5]; first compound 0.1 µM) | relative viability ([5]; first compound 1 µM)
1 | NCI-H23 | 0.442 | 0.556 | 0.647 | 0.46 | 0.326 | 0.328 | 0.348 | 0.278 | 0.779 | 0.622 | 0.651 | 0.619 | 0.927 | 0.937 | 0.679 | 0.76 | 0.368 | 0.345 | 0.404 | 0.364
2 | NCI-H322M | 0.964 | 0.954 | 1.03 | 0.789 | 0.762 | 0.758 | 0.741 | 0.492 | 0.751 | 0.856 | 0.857 | 0.54 | 0.252 | 0.267 | 0.246 | 0.301 | 0.472 | 0.46 | 0.497 | 0.315
3 | NCI-H358 | 0.787 | 0.753 | 0.602 | 0.594 | 0.566 | 0.579 | 0.572 | 0.366 | 0.634 | 0.697 | 0.548 | 0.483 | 0.2 | 0.201 | 0.206 | 0.366 | 0.101 | 0.106 | 0.109 | 0.113
4 | NCI-H441 | 0.583 | 0.504 | 0.58 | 0.543 | 0.431 | 0.562 | 0.755 | 0.678 | 0.827 | 0.885 | 0.936 | 0.835 | 0.55 | 0.667 | 0.676 | 0.848 | 0.673 | 0.589 | 0.599 | 0.823
5 | NCI-H460 | 0.753 | 0.835 | 0.668 | 0.338 | 0.388 | 0.407 | 0.392 | 0.414 | 0.719 | 0.717 | 0.761 | 0.775 | 0.548 | 0.491 | 0.51 | 0.537 | 0.555 | 0.545 | 0.479 | 0.112
6 | NCI-H520 | 1.05 | 1.05 | 1.03 | 0.767 | 0.358 | 0.379 | 0.352 | 0.298 | 0.729 | 0.735 | 0.724 | 0.708 | 0.226 | 0.232 | 0.199 | 0.22 | 0.407 | 0.446 | 0.39 | 0.347
7 | NCI-H596 | 0.941 | 0.978 | 1.16 | 0.831 | 0.73 | 0.715 | 0.705 | 0.564 | 0.685 | 0.557 | 0.509 | 0.573 | 0.595 | 0.721 | 0.704 | 0.637 | 1.06 | 0.828 | 0.893 | 0.788
8 | NCI-H647 | 0.913 | 1.11 | 1.21 | 0.817 | 0.6 | 0.474 | 0.481 | 0.287 | 0.584 | 0.568 | 0.667 | 0.642 | 0.22 | 0.219 | 0.222 | 0.174 | 0.38 | 0.203 | 0.389 | 0.201
9 | NCI-H650 | 1.17 | 0.846 | 0.985 | 1.21 | 0.407 | 0.357 | 0.424 | 0.424 | 0.446 | 0.356 | 0.483 | 0.415 | 0.47 | 0.502 | 0.488 | 0.552 | 0.74 | 0.772 | 0.721 | 0.801
10 | NCI-H661 | 0.678 | 0.571 | 0.57 | 0.323 | 0.696 | 0.736 | 0.743 | 0.649 | 0.784 | 0.912 | 0.866 | 0.829 | 0.947 | 0.883 | 0.884 | 0.814 | 0.34 | 0.362 | 0.385 | 0.425
11 | NCI-H727 | 0.231 | 0.386 | 0.305 | 0.182 | 0.6 | 0.87 | 0.69 | 0.563 | 1.04 | 1.27 | 1.33 | 0.973 | 0.374 | 0.321 | 0.32 | 0.31 | 0.577 | 0.598 | 0.549 | 0.441
12 | NCI-H838 | 1.04 | 0.97 | 0.951 | 0.466 | 0.84 | 0.752 | 0.684 | 0.406 | 0.741 | 0.766 | 0.755 | 0.746 | 0.325 | 0.302 | 0.334 | 0.332 | 0.306 | 0.294 | 0.263 | 0.215
13 | NCI-H1355 | 0.824 | 0.792 | 0.872 | 0.687 | 0.715 | 0.733 | 0.784 | 0.633 | 0.655 | 0.694 | 0.708 | 0.625 | 0.746 | 0.673 | 0.731 | 0.709 | 0.549 | 0.603 | 0.524 | 0.475
14 | NCI-H1395 | 1.28 | 1.17 | 1.27 | 0.994 | 0.456 | 0.511 | 0.468 | 0.487 | 0.802 | 0.827 | 0.862 | 0.787 | 0.414 | 0.429 | 0.405 | 0.436 | 0.758 | 0.727 | 0.718 | 0.66
15 | NCI-H1437 | 1.06 | 1.05 | 0.962 | 0.781 | 0.609 | 0.635 | 0.604 | 0.545 | 0.875 | 0.793 | 0.842 | 0.805 | 0.392 | 0.384 | 0.4 | 0.338 | 0.401 | 0.426 | 0.407 | 0.344
